Test results as given in a melting point compilation (Tetko et al.; mined from patent text by program, amines drawn as free bases though some values may be those of a salt).

Row | Compound | melting point [°C]
1 | Cc1sc2nc(N(CCO)CCO)nc(NCc3ccccn3)c2c1Br | 152
2 | COc1ccc2c(Cc3nc4c(F)c(F)cc(F)c4s3)cn(CC(=O)O)c2c1 | 118 to 120
3 | CN(C)C(=O)c1ccccc1Sc1ccc([N+](=O)[O-])cc1[N+](=O)[O-] | 144 to 145
4 | C=C(C)C(=O)Oc1ccc(S(=O)(=O)NC)cc1 | 106 to 107
5 | COC(=O)C(=O)c1ccc(OCCOc2ccc3ccccc3c2)c(C)c1 | 118 to 119
6 | COC(=O)C(=O)Nc1ccc2c3c(n(CCCNC(=O)OC(C)(C)C)c(=O)c2c1)-c1ccccc1C3=O | 157 to 159
7 | COC(=O)NC1Cc2ccc([N+](=O)[O-])cc2C1OC(C)=O (configuration not stated) | 164 to 167
8 | C=C(C#N)C(=O)NCCCc1ccccc1 | 83
9 | C#CCNC(NCCSCc1[nH]cnc1C)=C(C#N)C#N | 112 to 115
10 | Cc1nc(N(C)N)[nH]c(=O)c1CCO | 180
11 | Cc1nn(C)c(N)c1C#N | 193 to 195
12 | CCN(CC)c1c(C(=O)O)n(-c2ccccc2)c2ccc(OC)cc12 | 141 to 143
13 | Cc1ccc(C2(C(=O)O)CC2C(=O)O)cc1 (single isomer, unassigned; (-)) | 145 to 148
14 | CCS(=O)(=O)c1ccc(-c2cnn(-c3cccc(Cl)c3)c(=O)c2C2CCCCC2)cc1 | 85 to 90
15 | O=C(CCCCCNC(=O)OCc1ccccc1)NCCc1ccc(O)cc1 | 108
16 | N#CC=CC(=O)C=NN1CC(=O)NC1=O | 171 to 173
17 | NCc1[nH]c2ccc(Cl)cc2c1-c1c(F)cccc1F | 199 to 200
18 | CC(=O)NC(C(=O)NCc1ccncc1)c1ccco1 (configuration not stated) | 168 to 170
19 | CCn1nc(C)c2nc(C)nc(O)c21 | 220 to 223
20 | Cc1cccc(C)c1NC(=O)CN1CCN(Cc2ccccc2)CC1C(C)O (configuration not stated) | 149
21 | OC(CCCl)COc1ccc(Cl)cc1 (configuration not stated) | 62 to 64
22 | CC(=O)OC1CSC(Oc2cncc(-c3ccco3)c2)C(OC(C)=O)C1OC(C)=O (configuration not stated) | 184
23 | COC(=O)C1=C(C)NC2=C(C(=O)OC2C)C1c1ccccc1Cl (configuration not stated) | 228 to 233
24 | CN(C)C1CN(c2c(F)cc3c(=O)c(C(=O)O)cn(C4CC4)c3c2F)C1 | 256 to 260
25 | O=C1Cc2cccc(OCC3CO3)c2ON1 (configuration not stated) | 158 to 160
26 | CC1=Nc2c(F)c(F)c(F)c(F)c2SN1 | 290 to 291

Row | Compound | melting point [°C]
27 | COc1cc2c(cc1OC)C1Cc3cc(OC)c(OC(C)=O)cc3CN1CC2 (configuration not stated) | 162 to 164
28 | COc1cc(OC)c(CNCCc2ccc(O)cc2)cc1O | 170 to 173
29 | COc1cc(/C=C/c2ccc(C)cc2)cc(OC)c1OC | 125 to 127
30 | Cc1noc(C)c1-c1ccc(C[C@H](NC(=O)c2c(Cl)cccc2Cl)C(=O)O)cc1 | 152
31 | COc1ccccc1NC(=O)Nc1nc(N2CCCCC2)nc(N(CCC(=O)O)Cc2ccc(Cl)c(Cl)c2)n1 | 111 to 115
32 | CCc1cc2c(-c3ccccc3Cl)c(N)cnc2s1 | 87 to 88
33 | CCOC(=O)c1c(NCc2ccc(OC)c(Cl)c2)ccnc1Cl | 116 to 118
34 | CCOC(=O)c1ccc(SCC)c(-c2cc(C)no2)c1C | 39 to 40
35 | O=C(c1ccc(F)cc1)c1ccc(OC(F)(F)F)cc1 | 42 to 43
36 | O=C(c1ccc(Cl)cc1)c1ccc(Cc2c(Cl)cc(N3N=CCNC3=O)cc2Cl)cc1 | 205 to 206
37 | COC(=O)CCCNC(=O)CCCN(C(=O)c1cc(OC)c(OC)c(OC)c1)c1c(C)cccc1C | 97 to 99
38 | CC(C)(C)c1cc(Sc2n[nH]c(=S)o2)cc(C(C)(C)C)c1O | 129 to 131
39 | O=C(Nc1ccc(Nc2ccccc2)cc1)OCCc1ccc([N+](=O)[O-])cc1 | 146 to 148
40 | Clc1cccc(Cn2cnc3c(-c4ccco4)nc(Cl)nc32)c1 | 196 to 198
41 | CCN(CC)Cc1nc2cc(OC)c(OC)cc2c(-c2ccc(OC)c(OC)c2)c1C(C)=O | 146 to 148
42 | Cc1ccc(-c2ccc3c(c2)C=C(C(=O)NC2CCN(CC4=CCCCCCCC4)CC2)CCO3)cc1 | 128 to 130
43 | CCN(CC)c1ccncc1NC(=S)NC1CCCCC1 | 119 to 121
44 | CC(C)Cn1c(CNC(=O)OC(C)(C)C)c(-c2ccccc2)c2cc(-c3nc(C(=O)O)cs3)ccc2c1=O | 213 to 214
45 | CCOC(=O)c1nc(-c2ccc(OC)cc2)oc1C | 74 to 76
46 | COc1ccc(CC(C)=O)cc1S(=O)(=O)Cl | 80 to 81
47 | CC1Nc2ccc(-c3csc(C#N)c3)cc2C2(CCCC2)O1 (configuration not stated) | 103 to 104
48 | CC(=O)Nc1ccc2[nH]c(=O)cc(CCN3CCC(c4c[nH]c5ccccc45)CC3)c2c1 | 180 to 183
49 | O=C(c1ccc(O)cc1)c1cc(C(=O)c2ccc(O)cc2)cc([N+](=O)[O-])c1 | 230 to 232
50 | c1csc(-c2nc(COc3ccc(CCCCn4ccnc4)cc3)cs2)c1 | 108 to 109
51 | CC(C(=O)O)c1ccc2c(Br)c(OCc3ccc4ccccc4n3)ccc2c1 (configuration not stated) | 210 to 212
52 | COC(=O)C(Cc1ccc(OCC(=O)Nc2ccc(Oc3ccc(C45CC6CC(CC(C6)C4)C5)cc3)cc2N(C)C(=O)OC(C)(C)C)cc1)OCc1ccc(F)cc1 (configuration not stated) | 52 to 56

Row | Compound | melting point [°C]
53 | COC(=O)c1cc(C)cc(-c2cccs2)c1NS(=O)(=O)c1ccc(OC)cc1 | 141
54 | Cc1c(CNC(=O)NO)c2cc(OCc3ccc4ccccc4n3)ccc2n1Cc1ccc(Cl)cc1 | 184 to 186
55 | O=C(O)c1cnc2n(c1=O)CCc1ccccc1-2 | 215 to 217
56 | Cc1cccc(COc2cccc(OCc3ccc4ccccc4n3)c2)c1C(=O)O | 167 to 168
57 | CCCn1c(=O)cc(-n2nc(-c3c(-c4ccccc4)nn4ccccc34)ccc2=O)n(CC(=O)OC)c1=O | 143 to 145
58 | COc1ccc(N)nc1C | 98 to 100
59 | O=C1c2ccccc2-n2cnc(-c3noc(CCl)n3)c2[C@@H]2CCCN12 | 205 to 206
60 | COC1(c2csc(Sc3ccc4c(c3)CCC(=O)N4C)c2)CCOCC1 | 106 to 108
61 | O=C(NCC1CCN(CC2COc3ccccc3O2)CC1)c1ccccn1 (configuration not stated) | 95 to 97
62 | C=CCOC(=O)c1ccc(N=Cc2ccc3c(c2Cl)C(C)(C)CCC3(C)C)cc1 | 80
63 | CCCNC1Cc2cccc3[nH]c(=O)n(c23)C1 (configuration not stated) | > 300
64 | COc1cc(S(C)(=O)=O)ccc1-c1nc2cc3c(cc2[nH]1)N(C(C)=O)CC3(C)C | 223 to 225
65 | COc1ccc(-c2nc(COCCc3cccc(NS(=O)(=O)C(F)(F)F)c3)cs2)cc1 | 112 to 113
66 | COC(=O)c1c(C)[nH]c(C)c1C1=CC(=O)c2ncccc2C1=O | 237 to 241
67 | CNc1nc(N)nc(NC)n1 | 291
68 | CNS(=O)(=O)c1cc(OC)c(OC)c(C(=O)NCC2CCCN2CC2=CCCCC2)c1 (configuration not stated) | 120 to 121
69 | CC(C)(C)c1cc(CN)n(NCC(F)(F)F)n1 | 80 to 83
70 | O=C(O)COc1cccc2c1Cc1sc(SCCC(c3ccccc3)c3ccccc3)nc1-2 | 100 to 103
71 | CCc1ccc(Nc2c(C(=O)NOCCO)ccc(F)c2F)c(F)c1 | 112
72 | CNC(=O)ON=C(C(=O)N(C)C)C(C)=NOC | 172 to 173
73 | Cc1ccc(C=NNc2ncnc3ccccc23)cc1 | 211 to 214
74 | CCCCCc1cc(O)c2c3c(c(=O)oc2c1)SC(C)(C)C3 | 203 to 206
75 | COC(=O)c1ccc(NC(=O)NCc2cccc(OC(C)=O)c2)cc1Cl | 113 to 114
76 | CCOc1nc2cccc(C(=O)OC(C)OC(=O)OC3CCCCC3)c2n1Cc1ccc(-c2ccccc2-c2nc(=O)o[nH]2)cc1 (configuration not stated) | 108 to 109
77 | CCOc1nccnn1 | 95 to 99
78 | CCCCCCCCCCCCCCCCCCOc1cc(OCCCOc2ccc(OCc3ccccc3)cc2)cc(C(=O)OC)c1 | 76 to 77

Row | Compound | melting point [°C]
79 | O=C(c1cccc(F)c1)N1CCC2(CCn3c(nc(-c4ccncn4)cc3=O)N2)C1 (configuration not stated) | 296 to 298
80 | Cn1nc(N)c(C#N)c1N | 194
81 | O=[N+]([O-])c1ccc(C2CCOCC2)cc1 | 124
82 | CN(C)CCNC(=O)N1CCC(Oc2ccccc2)C1 (configuration not stated) | 72 to 73
83 | NC(=O)CNC(=O)c1sc(Nc2ccccc2)c2c1CCc1cnoc1-2 | 213 to 214
84 | c1cnc2c(c1)cc(-c1nnn[nH]1)c1nnnn12 | 280 to 282
85 | COc1ccc(Br)cc1C(=O)C(Br)C(Br)c1cccc(Br)c1 (configuration not stated) | 124 to 126
86 | N#Cc1ccc2c(c1)C=C(C(=O)O)C(C(F)(F)F)N2 (configuration not stated) | 238 to 240
87 | O=c1[nH]c2ccccc2c2c(CCO)n(-c3ccccc3)nc12 | 310 to 312
88 | COc1ccc(-c2nc(CO)c[nH]2)cc1 | 171 to 173
89 | Clc1ccc2c(NCc3ccccc3)c3cccn3nc2c1 | 184 to 186
90 | COC(=O)C1(C(=O)OC)CN(C(=O)OC(C)(C)C)c2cc([N+](=O)[O-])c3ccccc3c21 | 151
91 | Cc1c(F)c(N2CCC(n3cncn3)C2)c(F)c2c1c(=O)c(C(=O)O)cn2C1CC1 (configuration not stated) | 207 to 210
92 | CCOC(=O)C1(C)CCc2ccccc2O1 (configuration not stated) | 79 to 80
93 | C=CCOC(=O)c1cc(OCC=C)c(OCC=C)c(S(C)(=O)=O)c1 | 78 to 80
94 | C=C(C)CN1C(=O)CC(=O)N(c2ccccc2)c2cc(Cl)ccc21 | 149 to 151
95 | Cn1nc(-c2cc3c(cc2F)NC(=O)CO3)c(Cl)c1C(F)(F)F | 242
96 | Cn1c(=O)c2c(O)nccc2n(C)c1=O | > 300
97 | O=C(O)CCCc1ccc(NS(=O)(=O)c2ccc(Cl)c(Cl)c2)cn1 | 193 to 194
98 | COc1ccc(CCCN2C(=O)c3ccccc3C2=O)cc1OC | 82 to 85
99 | CCS(=O)(=O)c1ccc(C(CC2CCCC2)C(=O)Nc2nccs2)cc1 (configuration not stated) | 178 to 179
100 | CN(C)c1ccc(NC(=O)c2cc3cc([Si](C)(C)C)ccc3n2Cc2cccc(F)c2)cn1 | 204 to 205
101 | COc1ccc(OCCOc2ccc(C(=O)C(=O)O)cc2)cc1OC | 140 to 141
102 | COc1sc(C)c(CO)c1C | 55 to 60
